Measured values reported in patent US7678390B2, “Carbon monoxide as a biomarker and therapeutic agent” (priority 1999, dated 2010).
Marks after values point to notes of the source that are not given here.

Legend:
RAW 264.7 macrophages = assay: LPS-induced cytokine production in macrophages (ELISA, Western); type: cell-based, mouse; details: for TNF-α: RAW 264.7 macrophages
Description: Animals. Male C57BL/6 and IL-10 (−/−) mice were purchased from Jackson Laboratory (Bar Harbor, Me.), and allowed to acclimate for one week with rodent chow and water ad libitum. The MKK (−/−) mice were generated as previously described [Lu, et al., EMBO J. 18:1845-1857 (1999)]. Wild type littermates were used as controls. All animals were housed in accordance with guidelines from the American Association for Laboratory Animal Care and Research Protocols and were approved by the Animal Care and Use Committee of Yale University School of Medicine. Reagents. All reagents were purchased from Sigma Chemical Co. (St Louis, Mo.) unless specified otherwise. Plasmid Construct. Plasmid pSFFV/HO-1 was constructed by insertion of the rat HO-1 cDNA [Shibahara, et al., Proc. Natl. Acad. Sci. USA. 82: 7865-7869 (1985)] downstream of the Friend spleen focus-forming virus 5′ long-terminal repeat in the mammalian expression vector pSFFV/neo [Fuhlbrigge, et al, Proc. Natl. Acad. Sci. USA. 85: 5649-5653 (1988)] (kindly provided by Stanley Korsmeyer). Transfection. Stable transfections were carried out by the calcium phosphate precipitation technique as previously described [Alam, J., J. Biol. Chem. 269: 25049-25056 (1994)]. Briefly, RAW cells were plated (1×10^6/10 cm plate) and 16 h later, transfected with […] of pSFFV/neo or pSFFV/HO-1. Cells were exposed to the DNA-CaPO4 precipitate for 6 h, shocked by a 1 min treatment with glycerol in phosphate-buffered saline and cultured for an additional 24 h in complete medium before addition of G418. Transfectants were selected over a 3-week period in the presence of G418 (up to […]) and individual clones were isolated by limited dilution. Cell Culture Experimentation. RAW 264.7 mouse peritoneal macrophages were purchased from […] (Rockville, Md.) and primary culture of rat pulmonary vascular smooth muscle cells were harvested from male Sprague Dawley rats (250-300 g) as previously described [Gunther, et al., J. Cell. Biol. 92: 289-298 (1982).]. Both cell types were grown in DMEM containing 10% FBS and gentamicin ([…]) in a humidified atmosphere of 5% CO2/balanced air or 250 ppm CO/5% CO2/balanced air. After a 2 h pretreatment with either CO or air, LPS ([…]) or sterile saline was added to the culture media and the culture plates were returned to the chamber(s). At various time points, cell plates were removed from the chamber to collect media and/or cells for Western analysis. CO Exposures. Mice or macrophages were exposed to compressed air or 250 ppm CO. For cell culture experiments, 5% CO2 was also present for buffering requirements. CO at a concentration of 1% (10,000 ppm) in compressed air was mixed with compressed air with or without CO2 in a stainless steel mixing cylinder before delivery into the exposure chamber. Flow into the 3.70-ft^2 plexiglass animal chamber was maintained at 12 L/min and into the 1.2 ft^2 cell culture chamber at a flow of 2 L/min. The cell culture chamber was humidified and maintained at 37° C. A CO analyzer (Interscan, Chatsworth, Calif.) was used to measure CO levels continuously in the chambers. Gas samples were taken by the analyzer through a port in the top of the chambers at a rate of 1 L/min and analyzed by electrochemical detection, with a sensitivity of 10-600 ppm. Concentration levels were measured hourly and there were no fluctuations in the CO concentrations once the chamber had equilibrated (approximately 5 min). Animal Experimentation. Mice were prebled from the retroorbital sinus (0.25 ml) and then exposed to CO (250 ppm) or room air for 1 h prior to administration of LPS (1 mg/kg, i.p.), E. coli serotype O127:B8. 1 and 16 h thereafter, they were removed from the exposure apparatus individually and a blood sample was obtained via the retroorbital sinus. After the blood collection, the mice were immediately returned to the exposure chamber. […]

[1] = tested on: rat pulmonary vascular smooth muscle cells; assay: cGMP radioimmunoassay in vascular smooth muscle cells; type: cell-based; details: 2 h
Description: (§1) Animals. Male C57BL/6 and IL-10 (−/−) mice were purchased from Jackson Laboratory (Bar Harbor, Me.), and allowed to acclimate for one week with rodent chow and water ad libitum. The MKK (−/−) mice were generated as previously described [Lu, et al., EMBO J. 18:1845-1857 (1999)]. Wild type littermates were used as controls. All animals were housed in accordance with guidelines from the American Association for Laboratory Animal Care and Research Protocols and were approved by the Animal Care and Use Committee of Yale University School of Medicine. Reagents. All reagents were purchased from Sigma Chemical Co. (St Louis, Mo.) unless specified otherwise. Plasmid Construct. Plasmid pSFFV/HO-1 was constructed by insertion of the rat HO-1 cDNA [Shibahara, et al., Proc. Natl. Acad. Sci. USA. 82: 7865-7869 (1985)] downstream of the Friend spleen focus-forming virus 5′ long-terminal repeat in the mammalian expression vector pSFFV/neo [Fuhlbrigge, et al, Proc. Natl. Acad. Sci. USA. 85: 5649-5653 (1988)] (kindly provided by Stanley Korsmeyer). Transfection. […] Gas samples were taken by the analyzer through a port in the top of the chambers at a rate of 1 L/min and analyzed by electrochemical detection, with a sensitivity of 10-600 ppm. Concentration levels were measured hourly and there were no fluctuations in the CO concentrations once the chamber had equilibrated (approximately 5 min). […]

MKK3(−/−) mice given LPS = assay: LPS-induced serum cytokines in MKK3(-/-) mice; type: in vivo, mouse; details: LPS 1 mg/kg, 250 ppm CO
Description: as §1

[2] = tested on: IL-10(−/−) null mice given LPS; assay: LPS-induced serum TNF-α in IL-10(-/-) null mice; type: in vivo; details: Mus musculus, IL-10(−/−) mice, CO 250 ppm, 1 h, read-out: inhibition of serum TNF-α levels
Description: as §1

rats = assay: Tolerability of low concentrations of CO in rats; type: in vivo, rat
Description: Animals were exposed to >98% O2 or 98% O2+CO mixtures at a flow rate of 12 liters/min in a 3.70-cubic-foot glass exposure chamber. Animals were supplied food and water during the exposures. CO at a concentration of 1% (10,000 ppm) in compressed air was mixed with >98% O2 in a stainless steel mixing cylinder prior to entering the exposure chamber. By varying the flow rates of CO into the mixing cylinder, concentrations delivered to the exposure chamber were controlled. Because the flow rate was primarily determined by the O2 flow, only the CO flow was changed to generate the different concentrations delivered to the exposure chamber. A carbon monoxide analyzer (Interscan Corporation, Chatsworth, Calif.) was used to measure CO levels continuously in the chamber. Gas samples were taken by the analyzer through a port in the top of the exposure chamber at a rate of 1 liter/min and analyzed by electrochemical detection with a sensitivity of 10 ppm to 600 ppm. CO levels in the chamber were recorded at hourly intervals and there were no changes in chamber CO concentrations once the chamber had equilibrated. O2 concentrations in the chamber were determined using a gas spectrometer.

[C-]#[O+] [CO, carbon monoxide]
LPS-induced TNF-α production (ELISA) (RAW 264.7 macrophages; CO 250 ppm): significantly attenuated levels | LPS-induced MIP-2 (RAW 264.7 macrophages; LPS, CO 250 ppm): not affecting | LPS-induced IFN-g (RAW 264.7 macrophages; LPS, CO (data not shown)): not affecting | LPS-induced JE (RAW 264.7 macrophages; LPS, CO (data not shown)): not affecting | LPS-induced KC (RAW 264.7 macrophages; LPS, CO (data not shown)): not affecting | LPS-induced accumulation of IL-10 (RAW 264.7 macrophages; LPS, CO at 250 ppm): significantly augmented | inhibition of TNF-α production in the media by ELISA (RAW 264.7 macrophages; RAW 264.7 cells, LPS in the presence of CO): > 80% | TNF-α (RAW 264.7 macrophages; with LPS): 230 ± 40^b pg/ml | TNF-α (RAW 264.7 macrophages; without LPS): 15 ± 5 pg/mL | TNF-α protein expression by Western blot (RAW 264.7 macrophages; cell lysates and media, LPS in the presence of CO): decreased TNF-α protein expression | cGMP ([1]; VSM (vascular smooth muscle cells), CO 250 ppm): 8.1 ± 2^c pmol/mg protein | increase in cGMP content ([1]; smooth muscle cells, 250 ppm CO): 16 fold | LPS-induced TNF-α production (MKK3(−/−) mice given LPS): did not affect | serum IL-10 levels after LPS (MKK3(−/−) mice given LPS): did not exhibit augmented serum IL-10 levels | inhibition at 250 ppm [2]: 66% | 500 ppm as fraction of the lethal concentration of CO (rats; in our model (data not shown)): one twentieth | untoward effects (rats; rats exposed to CO (50-500 ppm) alone): did not exhibit any untoward effects
